From US8575183B2, “Heterocyclic compounds and their uses” (priority 2010, dated 2013)

Legend:
[1] = tested on: mouse model of rheumatoid arthritis; details: in vivo; cited from earlier work
[2] = tested on: model of systemic lupus erythematosis; details: in vivo; cited from earlier work
[3] = tested on: Class I PI3 kinase isoforms; details: cited from earlier work
P110β = P110β (Homo sapiens, UniProt P42338); details: cited from earlier work
p110δ = p110δ (Homo sapiens, UniProt O00329); details: cited from earlier work
p110δ, sequence (O00329 whole entry): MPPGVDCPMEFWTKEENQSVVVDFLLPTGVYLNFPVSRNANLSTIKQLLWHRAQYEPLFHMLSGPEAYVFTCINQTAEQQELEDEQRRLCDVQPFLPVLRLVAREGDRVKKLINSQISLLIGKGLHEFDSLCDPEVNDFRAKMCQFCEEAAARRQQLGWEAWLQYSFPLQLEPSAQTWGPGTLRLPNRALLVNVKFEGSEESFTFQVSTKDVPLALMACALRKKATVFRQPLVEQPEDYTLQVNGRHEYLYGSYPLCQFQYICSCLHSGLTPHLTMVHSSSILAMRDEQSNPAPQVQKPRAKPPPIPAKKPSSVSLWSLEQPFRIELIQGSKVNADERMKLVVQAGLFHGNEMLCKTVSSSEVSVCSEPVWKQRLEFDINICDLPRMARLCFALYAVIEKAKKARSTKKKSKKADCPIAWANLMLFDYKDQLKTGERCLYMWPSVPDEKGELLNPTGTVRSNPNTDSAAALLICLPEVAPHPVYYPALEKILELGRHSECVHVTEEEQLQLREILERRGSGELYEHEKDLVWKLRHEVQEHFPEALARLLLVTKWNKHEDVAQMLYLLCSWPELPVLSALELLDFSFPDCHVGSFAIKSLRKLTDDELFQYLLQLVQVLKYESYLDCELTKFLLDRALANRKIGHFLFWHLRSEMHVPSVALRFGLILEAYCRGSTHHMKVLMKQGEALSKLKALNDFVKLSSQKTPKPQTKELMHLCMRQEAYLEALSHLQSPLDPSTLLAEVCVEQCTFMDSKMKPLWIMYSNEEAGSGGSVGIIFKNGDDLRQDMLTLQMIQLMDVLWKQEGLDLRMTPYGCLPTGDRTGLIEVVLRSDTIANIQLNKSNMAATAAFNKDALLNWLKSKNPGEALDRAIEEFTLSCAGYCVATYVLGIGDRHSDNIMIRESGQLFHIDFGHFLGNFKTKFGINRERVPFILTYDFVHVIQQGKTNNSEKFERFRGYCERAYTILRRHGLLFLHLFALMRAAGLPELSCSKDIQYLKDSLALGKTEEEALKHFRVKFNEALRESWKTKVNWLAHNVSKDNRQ
p110δ, sequence (P27986 whole entry partner): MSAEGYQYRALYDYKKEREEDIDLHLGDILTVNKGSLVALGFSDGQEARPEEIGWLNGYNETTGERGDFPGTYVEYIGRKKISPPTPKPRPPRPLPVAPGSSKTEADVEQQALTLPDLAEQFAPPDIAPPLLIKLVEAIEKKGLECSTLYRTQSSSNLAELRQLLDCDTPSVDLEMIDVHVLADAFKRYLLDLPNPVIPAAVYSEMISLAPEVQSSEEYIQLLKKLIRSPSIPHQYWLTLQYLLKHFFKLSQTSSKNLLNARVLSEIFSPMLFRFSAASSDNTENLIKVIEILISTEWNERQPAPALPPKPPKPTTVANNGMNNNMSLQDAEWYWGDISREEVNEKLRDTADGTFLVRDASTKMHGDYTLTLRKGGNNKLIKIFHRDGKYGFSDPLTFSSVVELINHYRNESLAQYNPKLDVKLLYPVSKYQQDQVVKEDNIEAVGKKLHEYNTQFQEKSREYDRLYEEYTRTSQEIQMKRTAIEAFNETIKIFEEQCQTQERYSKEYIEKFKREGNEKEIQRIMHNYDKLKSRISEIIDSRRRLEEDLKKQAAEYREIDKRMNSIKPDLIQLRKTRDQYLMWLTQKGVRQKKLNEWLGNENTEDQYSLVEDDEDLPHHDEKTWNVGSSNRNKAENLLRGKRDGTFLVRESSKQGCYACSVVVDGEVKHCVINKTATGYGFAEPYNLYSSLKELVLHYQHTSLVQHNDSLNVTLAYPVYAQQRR

murine model of asthma = details: ovalbumin-induced airway inflammation; cited from earlier work
protein kinases = details: cited from earlier work
PI3k δ = biological target: T1, PI3k δ (Homo sapiens, UniProt O00329); test: biochemical; type: biochemical; details: read-out: PI3k δ Ki
T1 construct: Full length p110 subunits of PI3k α, β and δ; polyHis (N); made in house; host or cells: Sf9 insect cells (baculovirus)
T1 sequence (O00329 whole entry): as the sequence (O00329 whole entry) above
T1 sequence (P27986 whole entry partner): as the sequence (P27986 whole entry partner) above
Method: Full length p110 subunits of PI3k α, β and δ, N-terminally labeled with polyHis tag, were coexpressed with p85 with Baculo virus expression vectors in sf9 insect cells. P110/p85 heterodimers were purified by sequential Ni-NTA, Q-HP, Superdex-100 chromatography. Purified α, β and δ isozymes were stored at −20° C. in 20 mM Tris, pH 8, 0.2M NaCl, 50% glycerol, 5 mM DTT, 2 mM Na cholate. […] The γ isozyme was purified by sequential Ni-NTA, Superdex-200, Q-HP chromatography. The γ isozyme was stored frozen at −80° C. in NaH2PO4, pH 8, 0.2M NaCl, 1% ethylene glycol, 2 mM β-mercaptoethanol.
Phospatidyl inositol phosphoacceptor, Ptdlns(4,5)P2 P4508, was from Echelon Biosciences. […] Test compounds were dissolved in dimethyl sulfoxide and diluted with three-fold serial dilutions. The compound in DMSO (1 μL) was added per test well, and the inhibition relative to reactions containing no compound, with and without enzyme was determined. After assay incubation at rt, the reaction was stopped and residual ATP determined by addition of an equal volume of a commercial ATP bioluminescence kit (Perkin Elmer EasyLite) according to the manufacturer's instructions, and detected using a AnalystGT luminometer.

P110β, sequence (P42338 whole entry): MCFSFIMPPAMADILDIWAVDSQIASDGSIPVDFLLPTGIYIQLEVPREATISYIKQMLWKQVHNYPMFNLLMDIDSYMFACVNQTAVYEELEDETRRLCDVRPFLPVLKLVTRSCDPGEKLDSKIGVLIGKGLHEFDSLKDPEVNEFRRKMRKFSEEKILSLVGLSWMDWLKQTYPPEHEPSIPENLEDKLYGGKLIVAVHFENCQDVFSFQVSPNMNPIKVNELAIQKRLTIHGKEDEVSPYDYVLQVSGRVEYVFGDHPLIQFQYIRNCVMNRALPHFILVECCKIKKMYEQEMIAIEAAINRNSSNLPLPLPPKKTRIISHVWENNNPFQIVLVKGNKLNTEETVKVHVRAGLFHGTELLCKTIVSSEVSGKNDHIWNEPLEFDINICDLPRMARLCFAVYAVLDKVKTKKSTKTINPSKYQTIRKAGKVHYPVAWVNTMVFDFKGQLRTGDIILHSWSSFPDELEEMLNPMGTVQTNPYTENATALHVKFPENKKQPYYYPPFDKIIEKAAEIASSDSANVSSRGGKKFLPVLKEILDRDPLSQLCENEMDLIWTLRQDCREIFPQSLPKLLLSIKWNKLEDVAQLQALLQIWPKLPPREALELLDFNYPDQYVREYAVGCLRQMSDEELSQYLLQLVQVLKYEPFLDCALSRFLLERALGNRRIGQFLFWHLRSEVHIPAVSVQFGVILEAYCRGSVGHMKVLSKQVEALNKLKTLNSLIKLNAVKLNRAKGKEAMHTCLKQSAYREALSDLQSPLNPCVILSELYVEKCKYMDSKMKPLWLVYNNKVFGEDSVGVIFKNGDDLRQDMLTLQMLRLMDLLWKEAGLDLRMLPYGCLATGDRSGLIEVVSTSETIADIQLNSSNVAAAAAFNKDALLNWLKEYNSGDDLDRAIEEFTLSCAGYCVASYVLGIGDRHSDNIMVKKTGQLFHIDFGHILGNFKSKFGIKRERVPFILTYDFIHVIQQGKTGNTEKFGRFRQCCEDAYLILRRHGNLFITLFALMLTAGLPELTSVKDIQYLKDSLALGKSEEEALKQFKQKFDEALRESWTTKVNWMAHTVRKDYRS
P110β, sequence (P27986 whole entry partner): as the sequence (P27986 whole entry partner) above

## O=C1NC(=O)/C(=C\c2ccc3nccnc3c2)S1 [AS 605240]
[1]
  efficacy in a mouse model of rheumatoid arthritis: efficacious
[2]
  onset of disease in a model of systemic lupus erythematosis: delay onset of disease

## Cc1cc(C(C)Nc2ccccc2)c2nc(N3CCOCC3)cc(=O)n2c1 (stereo not drawn) [TGX-221]
[3]; beta over delta
  selectivity over delta: 14 fold
[3]; beta over gamma and alpha
  selectivity over gamma and alpha: more than 500 fold
P110β
  potency on beta: 7 nM

## Cc1ccccc1-n1c(Cn2cnc3c(N)ncnc32)nc2cccc(C)c2c1=O [IC87114]
p110δ
  inhibition of p110δ: high nanomolar range (triple digit)
Murine model of asthma
  inflammation and disease in a murine model of asthma: significantly ameliorate inflammation and disease
Protein kinases
  activity against any protein kinases tested: no activity

## C[C@H](Nc1ncnc(N)c1C#N)c1nc2ncccn2c1-c1ccccn1 [4-amino-6-(((1S)-1-(3-(2-pyridinyl)imidazo[1,2-a]pyrimidin-2-yl)ethyl)amino)-5-pyrimidinecarbonitrile]
PI3k δ
  Ki: 1580 nM

## CC[C@H](Nc1ncnc(N)c1C#N)c1nc2cccc(S(C)(=O)=O)c2n1CC1CC1 [4-amino-6-(((1S)-1-(1-(cyclopropylmethyl)-7-(methylsulfonyl)-1H-benzimidazol-2-yl)propyl)amino)-5-pyrimidinecarbonitrile]
PI3k δ
  Ki: 2.19 nM

## C[C@H](Nc1ncnc(N)c1C#N)c1nc2cnccn2c1-c1ccccn1 [4-amino-6-(((1S)-1-(3-(2-pyridinyl)imidazo[1,2-a]pyrazin-2-yl)ethyl)amino)-5-pyrimidinecarbonitrile]
PI3k δ
  Ki: 2160 nM

## CC(Nc1ncnc(N)c1C#N)c1sc2ccccc2c1-c1cc(F)cc(F)c1 (stereo not drawn) [4-amino-6-((1-(3-(3,5-difluorophenyl)-1-benzothiophen-2-yl)ethyl)amino)-5-pyrimidinecarbonitrile]
PI3k δ
  Ki: 3.33 nM

## COC(=O)c1cccc2nc([C@H](C)Nc3ncnc(N)c3C#N)c(-c3cncc(F)c3)n12 [methyl 2-((1S)-1-((6-amino-5-cyano-4-pyrimidinyl)amino)ethyl)-3-(5-fluoro-3-pyridinyl)imidazo[1,2-a]pyridine-5-carboxylate]
PI3k δ
  Ki: 314 nM

## C[C@@H](Nc1ncnc(N)c1C#N)c1nc2cccc(S(C)(=O)=O)c2n1C1CC1 [4-amino-6-(((1R)-1-(1-cyclopropyl-7-(methylsulfonyl)-1H-benzimidazol-2-yl)ethyl)amino)-5-pyrimidinecarbonitrile]
PI3k δ
  Ki: 1000 nM

## C[C@@H](Nc1ncnc(N)c1C#N)c1nc2c(F)cccc2n1-c1cc(F)cc(F)c1 [4-amino-6-(((1R)-1-(1-(3,5-difluorophenyl)-4-fluoro-1H-benzimidazol-2-yl)ethyl)amino)-5-pyrimidinecarbonitrile]
PI3k δ
  Ki: 4180 nM

## C[C@@H](Nc1ncnc(N)c1C#N)c1nc2ccc(F)cc2n1-c1cccc(F)n1 [4-amino-6-(((1R)-1-(6-fluoro-1-(6-fluoro-2-pyridinyl)-1H-benzimidazol-2-yl)ethyl)amino)-5-pyrimidinecarbonitrile]
PI3k δ
  Ki: 755 nM

## C[C@H](Nc1ncnc(N)c1C#N)c1nc2ccc(F)cc2n1-c1cccc(F)n1 [4-amino-6-(((1S)-1-(6-fluoro-1-(6-fluoro-2-pyridinyl)-1H-benzimidazol-2-yl)ethyl)amino)-5-pyrimidinecarbonitrile]
PI3k δ
  Ki: 8.89 nM

## COC(=O)c1cccc2nc([C@H](C)Nc3ncnc(N)c3C#N)c(-c3ccccc3)n12 [methyl 2-((1S)-1-((6-amino-5-cyano-4-pyrimidinyl)amino)ethyl)-3-phenylimidazo[1,2-a]pyridine-5-carboxylate]
PI3k δ
  Ki: 39 nM

## C[C@H](Nc1ncnc2[nH]cnc12)c1nc2ccc(F)cc2n1-c1cncc(F)c1 [N-((1S)-1-(6-fluoro-1-(5-fluoro-3-pyridinyl)-1H-benzimidazol-2-yl)ethyl)-9H-purin-6-amine]
PI3k δ
  Ki: 3.77 nM

## C[C@H](Nc1ncnc(N)c1C#N)c1nc2cccc(S(C)(=O)=O)c2n1Cc1ccc(F)cc1 [4-amino-6-(((1S)-1-(1-(4-fluorobenzyl)-7-(methylsulfonyl)-1H-benzimidazol-2-yl)ethyl)amino)-5-pyrimidinecarbonitrile]
PI3k δ
  Ki: 26.8 nM

## CNC(=O)c1cccc2nc([C@H](C)Nc3ncnc(N)c3-c3ccc(S(C)(=O)=O)cc3)n(C3CC3)c12 [2-((1S)-1-((6-amino-5-(4-(methylsulfonyl)phenyl)-4-pyrimidinyl)amino)ethyl)-1-cyclopropyl-N-methyl-1H-benzimidazole-7-carboxamide]
PI3k δ
  Ki: 10.5 nM
